Test results from patent US9526793B1, “Salts of phenylethylamines and inorganic acids and methods of use thereof” (priority 2013, dated 2016).
Where two headings read alike, the source gives them in different places.

How the values were obtained:
[1] = Length of time the subject maintained a 5.5 mph pace on an elliptical trainer (athletic performance); type: in vivo, human; conditions: single oral capsule, 600 mg 2-phenylethylamine nitrate or equimolar admixture
Protocol: (§1) Solid dose capsules (size “00”, gelatin) were prepared containing either 600 mg of 2-phenylethylamine nitrate or equimolar quantities of an admixture of 2-phenylethylamine HCl and sodium nitrate (NaNO3). A placebo filled with an inert substance (200 mesh guar gum) was also prepared. The subject was given a single capsule containing 2-phenylethylamine nitrate, an admixture of 2-phenylethylamine HCl and NaNO3, or the placebo.
After oral administration of the compound, the subject's ability to maintain a speed of about 5.5 mph on an elliptical trainer was measured. The length of time was recorded before the subject became fatigued and was no longer able to maintain this pace (see Table 1). Athletic performance was measured at times soon after administration of the compound before the subject had engaged in significant physical activity that day (at about 9:30 am each day). The subject was blinded to the identity of the capsules.

[2] = Subject-reported duration of euphoria and of vasodilation (drop in systolic blood pressure, sphygmomanometer); type: in vivo, human; conditions: 600 mg oral capsule
Protocol: as §1
The subject estimated that the effect of the 2-phenylethylamine nitrate lasted substantially longer than the effect of the admixture. For example, the 2-phenylethylamine nitrate produced a sense of euphoria that typically lasted 50% longer than that experienced with the admixture.

[3] = Sexual performance of the subject (penile erectile genesis and maintainability); type: in vivo, human; conditions: single oral capsule
Protocol: Solid dose capsules were prepared as described in Example 3. The subject was given a single capsule containing 2-phenylethylamine nitrate, an admixture of 2-phenylethylamine HCl and NaNO3, or a placebo.
Sexual performance was evaluated in the subject by the relative length of time and number of times they were able to maintain an erection and engage in sexual intercourse (i.e., penile erectile genesis and maintainability) with their partner during a given period.

[4] = Clinical observation of onset and duration of athletic performance-enhancing effects after oral dose; type: in vivo
[5] = Tolerability of daily oral doses; type: in vivo
[6] = as measured using the HCl salt; cited from earlier work
[7] = cited from earlier work

Compound	Percent Improvement Compared to Placebo [1]	Time (Minutes) that the subject maintained a 5.5 mph pace on an elliptical ([1]; average of several occasions)	Duration of vasodilation versus the admixture ([2]; measured by drop in systolic blood pressure)	Sense of euphoria: duration longer than that experienced with the admixture ([2]; subject's estimate, versus admixture)	Sexual performance after administration ([3]; compared with admixture or placebo)	Reduction of refractory time between erections ([3]; subject, self-reported)	Time to clinically observable athletic performance-enhancing effects after ingestion ([4]; single dose of 0.100 grams to 0.600 grams)	Time for which athletic performance-enhancing effects are clinically observable ([4]; single, oral dose as low as 0.200 grams)	Daily oral dose tolerated without significant side effects [5]	pKb [6]	half-life ([7]; in vivo)	Increase of brain levels when taking an MAO inhibitor ([7]; initial 2-phenylethylamine brain concentration low)	Increase of brain levels when taking an MAO inhibitor ([7]; initial concentration high)
NCCc1ccccc1.O=[N+]([O-])O [2-Phenylethylamine Nitrate, 2-phenylethylamine nitrate]	10%	66 min	at least twice as long	50%	surprising enhancement in their sexual performance	~35%	≤ 10 min	≤ 6 h	≤ 3.00 grams	–	–	–	–
NCCc1ccccc1 [2-phenylethylamine]	–	–	–	–	–	–	–	–	–	4.17	5 to 10 min	~1000 fold	3-4 times
